Measurements published in PubChem BioAssay AID463199 (Broad Institute, 2010).
Calls of active or inactive are those of the source.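 How the source made its calls: active means AC50, the dose giving half-maximal effect, exceeds a fixed cutoff for a compound that rescues yeast growth under heat; inactive means the rest, inconclusive results apart.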

These molecules were tested on S. cerevisiae Burl-1 ts mutant growth, BacTiter-Glo, 38.5C 24 h (assay: growth induction of Burl-1 ts yeast mutant, dose response, counter-screen for SUMOylation pathway inhibitor project, whole organism, S. cerevisiae, luminescence (AID 463199)).
For `O=S(=O)(Nc1cccc2cn[nH]c12)c1ccc(F)cc1`, the AC50 was > 42 µM (inactive). `CCCCNS(=O)(=O)c1ccc(OC)cc1` was tested, and the AC50 was > 42 µM (inactive). In the case of `CC[n+]1c(/C=C(\C)SC)sc2ccccc21`, the AC50 is reported as > 42 µM (inactive). For `Cc1nn(C)c(Cl)c1CN1CCN(CCC(C)C)C(CCO)C1` (centres undefined), the AC50 was > 42 µM (inactive). In the case of `O=C(O)C1C2CCCCC2=C2CCCCC2C1C(=O)c1ccccc1` (centres undefined), the AC50 is reported as > 42 µM (inactive). For `Cc1cc(O)c(/C=N/Nc2cccc(Cl)c2)c(=O)o1`, the AC50 was > 42 µM (inactive). For `COCC(=O)Nc1c(C(=O)Nc2ccc3c(c2)OCO3)oc2ccccc12`, the AC50 was > 42 µM (inactive). In the case of `CCOc1ccccc1Nc1nnc(SCc2nnc(-c3cc(OC)c(OC)c(OC)c3)o2)s1`, the AC50 is reported as > 42 µM (inactive). `CN(C)S(=O)(=O)c1ccc(Cl)c(NC(=O)CN2C(=O)NC(C)(C3CC3)C2=O)c1` (centres undefined) was tested, and the AC50 was > 42 µM (inactive). In the case of `COc1ccccc1NC(=S)N(Cc1ccccc1)Cc1cccs1`, the AC50 is reported as > 42 µM (inactive). `COCCNC(=O)NC(=O)CSc1nc(C)c(C)c(C)n1` was tested, and the AC50 was > 42 µM (inactive). In the case of `COc1ccccc1N1CCN(C(=O)C2CCN(S(=O)(=O)c3ccc(C)cc3)CC2)CC1`, the AC50 is reported as > 42 µM (inactive). For `CC(C)N=C(NS(=O)(=O)NC(=O)c1ccccc1)c1ccccc1`, the AC50 was > 42 µM (inactive). For `O=C(NC1CCCC1)C(c1cccs1)N(C(=O)c1ccno1)c1ccccc1` (centres undefined), the AC50 was > 42 µM (inactive). In the case of `COC(=O)c1c(C)n(Cc2ccc3c(c2)OCO3)c2ccc(O)cc12`, the AC50 is reported as > 42 µM (inactive). With `CN(C)C(=O)CCN1CCOCC1` the AC50 was > 42 µM (inactive). With `O=C1c2cccc3c(N4CCCCC4)ccc(c23)C(=O)N1CCO` the AC50 was > 42 µM (inactive). `CCCOC(=O)c1c(-c2ccc(OC)cc2)oc2ccc(-c3ccc(OC)nc3)cc12` was tested, and the AC50 was > 42 µM (inactive). `Cc1c(=O)n(OCc2ccccn2)c2ccccc2[n+]1[O-]` was tested, and the AC50 was > 42 µM (inactive). In the case of `CCN1CCCC1CNC(=O)Cn1cnc2ccc(S(=O)(=O)N3CCC(C)CC3)cc2c1=O` (centres undefined), the AC50 is reported as > 42 µM (inactive). In the case of `Cc1[nH]oc(=O)c1N=Nc1ccccc1`, the AC50 is reported as > 42 µM (inactive). With `CC(C)C(=O)Nc1ccc(NC(=S)NC(=O)c2ccccc2F)cc1` the AC50 was > 42 µM (inactive). In the case of `O=C(O)c1cccc(NC(=O)c2cccc(S(=O)(=O)Nc3cccc([N+](=O)[O-])c3)c2)c1`, the AC50 is reported as > 42 µM (inactive). For `CC1(C)CC(=O)C(C=Nc2ccc(O)c(N=CC3=C(O)CC(C)(C)CC3=O)c2)=C(O)C1`, the AC50 was > 42 µM (inactive). For `Cc1cc([N+](=O)[O-])ccc1NC(=O)CSc1nccc(=O)[nH]1`, the AC50 was > 42 µM (inactive). With `Cc1cc(C)c(NC(=O)CCN2CCN(Cc3ccccc3)CC2)c(C)c1` the AC50 was > 42 µM (inactive). `CCc1cc2c(=O)c(-c3nc4ccccc4n3C)c(C)oc2c(CN2CCOCC2)c1O` was tested, and the AC50 was 22.7 µM. With `O=S(=O)(Cc1ccccc1)N1CCN(c2ncccn2)CC1` the AC50 was > 42 µM (inactive). `O=c1nc2ccc(Cl)cn2c2ccc(S(=O)(=O)N3CCOCC3)cc12` was tested, and the AC50 was > 42 µM (inactive). In the case of `CCC(C)[C@H](NC(=O)OC(C)(C)C)C(=O)NCC1CCC(C(=O)N[C@@H](Cc2ccccc2)C(=O)O)CC1` (some centres undefined), the AC50 is reported as > 42 µM (inactive). With `CC(C)C(=O)Nc1ccc(-c2nc3cccnc3o2)cc1` the AC50 was > 42 µM (inactive). `CCc1ccc2c(c1)C(c1ccc([N+](=O)[O-])cc1)=NNC(c1ccc(C)cc1)=N2` was tested, and the AC50 was > 42 µM (inactive). With `CCc1nc2ccc(C(=O)N3CCN(CC)CC3)cc2nc1CC` the AC50 was > 42 µM (inactive). In the case of `O=C(c1ccccc1)C(CN1CCCC1)c1ccccc1` (centres undefined), the AC50 is reported as > 42 µM (inactive). For `Cc1ccc(C)c(N2CCN(C(c3ccncc3)c3nnnn3Cc3ccccc3)CC2)c1` (centres undefined), the AC50 was 32.8 µM. In the case of `Cc1ccc(S(=O)(=O)N(C)c2ccc(OC(=O)CN3C(=O)NC4(CCCC4)C3=O)cc2)cc1C`, the AC50 is reported as > 42 µM (inactive). For `Cc1nn(CCOc2ccccc2)c(=O)n1-c1ccccc1F`, the AC50 was > 42 µM (inactive). For `Cc1cc(C)c(OCC(=O)N/N=C/c2ccco2)c(C)c1`, the AC50 was > 42 µM (inactive). In the case of `CC1CCCC(N2C(=O)NC(NC(=O)c3ccco3)(C(F)(F)F)C2=O)C1C` (centres undefined), the AC50 is reported as > 42 µM (inactive). For `CN1C(=O)C(O)(CC(=O)c2ccccc2O)c2cc(Br)ccc21` (centres undefined), the AC50 was > 42 µM (inactive). `CC(C)CC(c1nnnn1C1CCCCC1)N1CCN(C(=O)c2ccco2)CC1` (centres undefined) was tested, and the AC50 was > 42 µM (inactive). For `O=C1C2C(c3ccccc3)CC=CC2[C@H](c2ccc3ccccc3c2)N1Cc1ccccc1` (some centres undefined), the AC50 was > 42 µM (inactive). With `CCOC(=O)C1CCN(C(=O)c2ccc3c(c2)NC(=O)/C(=C/c2ccccc2)S3)CC1` the AC50 was > 42 µM (inactive). With `CCCC(O)(c1ccc(Br)cc1)C(CN1CCOCC1)c1ccc(Cl)cc1` (centres undefined) the AC50 was > 42 µM (inactive). In the case of `COc1ccc(-c2nc3c(c(SCC(=O)N4CCOCC4)n2)Cc2c(CO)cnc(C)c2O3)cc1`, the AC50 is reported as > 42 µM (inactive). `Cn1c(CN2CCOCC2)nnc1SCC(N)=O` was tested, and the AC50 was > 42 µM (inactive). For `COc1ccc(N2CCN(C(=O)C3CCCN(S(=O)(=O)c4ccc5c(c4)oc(=O)n5C)C3)CC2)cc1` (centres undefined), the AC50 was > 21 µM (inactive). `CC(C)(C)NC(=S)NCc1cccnc1` was tested, and the AC50 was > 42 µM (inactive). For `CC(C(=O)NCCN1CCOCC1)(c1ccccc1)c1ccccc1`, the AC50 was > 42 µM (inactive).
